ChEMBL document CHEMBL2074332, “Molecular and physiological evidence for multifunctionality of carnitine/organic cation transporter OCTN2” (Mol Pharmacol, 2001)

Key:
[1] = biological target: T1, OCTN2 (organic cation/carnitine transporter 2) (Mus musculus, UniProt Q9Z0E8); assay: TP_TRANSPORTER: inhibition of Carnitine uptake (Carnitine: 0.01 uM, Diphenhydramine: 500 uM) in OCTN2-expressing HEK293 cells; type: functional, cell-based; parameters: scale not given: the % may be the effect or the level left; conditions: human, HEK293 cells that express OCTN2, probe carnitine; read-out: Activity
T1 sequence (Q9Z0E8 whole entry): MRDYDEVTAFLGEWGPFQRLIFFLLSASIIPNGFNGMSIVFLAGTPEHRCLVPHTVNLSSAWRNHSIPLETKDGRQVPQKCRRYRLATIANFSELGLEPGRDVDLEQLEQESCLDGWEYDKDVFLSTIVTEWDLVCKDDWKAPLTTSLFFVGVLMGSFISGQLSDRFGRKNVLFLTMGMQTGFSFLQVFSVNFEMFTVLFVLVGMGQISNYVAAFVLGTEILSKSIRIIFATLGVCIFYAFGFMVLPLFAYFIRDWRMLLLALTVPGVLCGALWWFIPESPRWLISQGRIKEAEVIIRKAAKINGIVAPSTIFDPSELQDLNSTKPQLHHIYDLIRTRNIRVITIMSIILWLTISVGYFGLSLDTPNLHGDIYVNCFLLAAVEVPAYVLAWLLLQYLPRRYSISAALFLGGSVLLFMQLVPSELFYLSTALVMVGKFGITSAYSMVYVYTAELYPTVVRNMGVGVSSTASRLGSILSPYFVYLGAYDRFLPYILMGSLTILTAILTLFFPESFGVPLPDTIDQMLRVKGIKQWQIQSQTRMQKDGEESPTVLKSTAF

[2] = biological target: T2, Organic cation/carnitine transporter 2 (Mus musculus, UniProt Q9Z0E8); assay: TP_TRANSPORTER: uptake in OCTN2-expressing HEK293 cells; type: functional, cell-based; conditions: human
T2 sequence (Q9Z0E8 whole entry): T1 sequence (Q9Z0E8 whole entry)

[3] = biological target: T1, OCTN2 (organic cation/carnitine transporter 2); assay: TP_TRANSPORTER: inhibition of Carnitine uptake (Carnitine: 0.01 uM, Verapamil: 500 uM) in OCTN2-expressing HEK293 cells; type: functional, cell-based; parameters: scale not given: the % may be the effect or the level left; conditions: human, HEK293 cells that express OCTN2, probe carnitine; read-out: Activity
[4] = biological target: T1, OCTN2 (organic cation/carnitine transporter 2); assay: in vitro; conditions: human, HEK293 cells that express OCTN2, probe carnitine
Description: TP_TRANSPORTER: inhibition of Carnitine uptake (Carnitine: 0.01 uM, Thiamine: 5000 uM) in OCTN2-expressing HEK293 cells

[5] = biological target: T2, Organic cation/carnitine transporter 2; assay: TP_TRANSPORTER: inhibition of Carnitine uptake (Carnitine: 0.01 uM, alpha-KG: 500 uM) in OCTN2-expressing HEK293 cells; type: functional, cell-based; conditions: human, hek293, 500 µM
[6] = biological target: T1, OCTN2 (organic cation/carnitine transporter 2); assay: in vitro; conditions: human, HEK293 cells that express OCTN2, probe carnitine; remark: listed apart in the source
Description: TP_TRANSPORTER: inhibition of Carnitine uptake (Carnitine: 0.01 uM, Dapamine: 5000 uM) in OCTN2-expressing HEK293 cells

[7] = biological target: T1, OCTN2 (organic cation/carnitine transporter 2); assay: TP_TRANSPORTER: inhibition of Carnitine uptake (Carnitine: 0.01 uM, Lidocaine: 500 uM) in OCTN2-expressing HEK293 cells; type: functional, cell-based; parameters: scale not given: the % may be the effect or the level left; conditions: human, HEK293 cells that express OCTN2, probe carnitine; read-out: Activity
[8] = biological target: T1, OCTN2 (organic cation/carnitine transporter 2); assay: TP_TRANSPORTER: inhibition of Carnitine uptake (Carnitine: 0.01 uM, Procainamide: 500 uM) in OCTN2-expressing HEK293 cells; type: functional, cell-based; parameters: scale not given: the % may be the effect or the level left; conditions: human, HEK293 cells that express OCTN2, probe carnitine; read-out: Activity
[9] = biological target: T1, OCTN2 (organic cation/carnitine transporter 2); assay: TP_TRANSPORTER: inhibition of Carnitine uptake (Carnitine: 0.01 uM, MPP+: 500 uM) in OCTN2-expressing HEK293 cells; type: functional, cell-based; parameters: scale not given: the % may be the effect or the level left; conditions: human, HEK293 cells that express OCTN2, probe carnitine; read-out: Activity
[10] = biological target: T2, Organic cation/carnitine transporter 2; assay: TP_TRANSPORTER: inhibition of Carnitine uptake (Carnitine: 0.01 uM, Guanidine: 500 uM) in OCTN2-expressing HEK293 cells; type: functional, cell-based; conditions: human, hek293, 500 µM
[11] = biological target: T1, OCTN2 (organic cation/carnitine transporter 2); assay: TP_TRANSPORTER: inhibition of Carnitine uptake (Carnitine: 0.01 uM, Acetylcholine: 5000 uM) in OCTN2-expressing HEK293 cells; type: functional, cell-based; parameters: scale not given: the % may be the effect or the level left; conditions: human, HEK293 cells that express OCTN2, probe carnitine; read-out: Activity
[12] = biological target: T1, OCTN2 (organic cation/carnitine transporter 2); assay: TP_TRANSPORTER: inhibition of Carnitine uptake (Carnitine: 0.01 uM, Acetyl-beta-methylcholine: 500 uM) in OCTN2-expressing HEK293 cells; type: functional, cell-based; parameters: scale not given: the % may be the effect or the level left; conditions: human, HEK293 cells that express OCTN2, probe carnitine; read-out: Activity
[13] = biological target: T1, OCTN2 (organic cation/carnitine transporter 2); assay: TP_TRANSPORTER: inhibition of Carnitine uptake (Carnitine: 0.01 uM, Quinidine: 500 uM) in OCTN2-expressing HEK293 cells; type: functional, cell-based; parameters: scale not given: the % may be the effect or the level left; conditions: human, HEK293 cells that express OCTN2, probe carnitine; read-out: Activity
[14] = biological target: T1, OCTN2 (organic cation/carnitine transporter 2); assay: TP_TRANSPORTER: inhibition of Carnitine uptake (Carnitine: 0.01 uM, Pyrilamine: 500 uM) in OCTN2-expressing HEK293 cells; type: functional, cell-based; parameters: scale not given: the % may be the effect or the level left; conditions: human, HEK293 cells that express OCTN2, probe carnitine; read-out: Activity
[15] = biological target: T1, OCTN2 (organic cation/carnitine transporter 2); assay: TP_TRANSPORTER: inhibition of Carnitine uptake (Carnitine: 0.01 uM, Norepinephrine: 5000 uM) in OCTN2-expressing HEK293 cells; type: functional, cell-based; parameters: scale not given: the % may be the effect or the level left; conditions: human, HEK293 cells that express OCTN2, probe carnitine; read-out: Activity
[16] = biological target: T2, Organic cation/carnitine transporter 2; assay: TP_TRANSPORTER: inhibition of Carnitine uptake (Carnitine: 0.01 uM, PAH: 500 uM) in OCTN2-expressing HEK293 cells; type: functional, cell-based; conditions: human, hek293, 500 µM
[17] = biological target: T1, OCTN2 (organic cation/carnitine transporter 2); assay: TP_TRANSPORTER: inhibition of Carnitine uptake (Carnitine: 0.01 uM, Serotonin: 5000 uM) in OCTN2-expressing HEK293 cells; type: functional, cell-based; parameters: scale not given: the % may be the effect or the level left; conditions: human, HEK293 cells that express OCTN2, probe carnitine; read-out: Activity
[18] = biological target: T1, OCTN2 (organic cation/carnitine transporter 2); assay: in vitro; conditions: human, HEK293 cells that express OCTN2, probe carnitine; remark: listed apart in the source
Description: TP_TRANSPORTER: inhibition of Carnitine uptake (Carnitine: 0.01 uM, Choline: 500 uM) in OCTN2-expressing HEK293 cells

[19] = biological target: T2, Organic cation/carnitine transporter 2; assay: TP_TRANSPORTER: inhibition of Carnitine uptake (Carnitine: 0.01 uM, NMN: 500 uM) in OCTN2-expressing HEK293 cells; type: functional, cell-based; conditions: human, hek293, 500 µM
[20] = biological target: T1, OCTN2 (organic cation/carnitine transporter 2); assay: in vitro; conditions: human, HEK293 cells that express OCTN2, probe carnitine; remark: listed apart in the source
Description: TP_TRANSPORTER: inhibition of Carnitine uptake (Carnitine: 0.01 uM, TEA: 500 uM) in OCTN2-expressing HEK293 cells

How did the activity at 500 µM [1] turn out when `CN(C)CCOC(c1ccccc1)c1ccccc1` [DIPHENHYDRAMINE] was run?
Its activity at 500 µM is 43.6%.

What does the source list for `COc1ccc(CCN(C)CCCC(C#N)(c2ccc(OC)c(OC)c2)C(C)C)cc1OC` (centres undefined) [VERAPAMIL]?
Activity [2]: substrate [+]; activity at 500 µM [3]: 1.3%

For `Cc1ncc(C[n+]2csc(CCO)c2C)c(N)n1` [THIAMINE ION], which activity at 5000 µM [4] is on record?
The activity at 5000 µM was 65.9%.

Which Activity [5] does the source give for `O=C(O)CCC(=O)C(=O)O` [ALPHA-KETOGLUTARIC ACID] here?
The Activity was “is not an inhibitor [-]”.

How did the activity at 5000 µM [6] turn out when `NCCc1ccc(O)c(O)c1` [DOPAMINE] was run?
Its activity at 5000 µM is 70.9%.

Which activity at 500 µM [7] does the source give for `CCN(CC)CC(=O)Nc1c(C)cccc1C` [LIDOCAINE] here?
The activity at 500 µM was 57.1%.

How did the activity at 500 µM [8] turn out when `CCN(CC)CCNC(=O)c1ccc(N)cc1` [PROCAINAMIDE] was run?
The activity at 500 µM was 81.3%.

Which results are given for `C[n+]1ccc(-c2ccccc2)cc1`?
Activity [2]: substrate [+]; activity at 500 µM [9]: 72.9%

For `N=C(N)N` [GUANIDINE], which Activity [10] is on record?
The Activity was “is not an inhibitor [-]”.

`CC(=O)OCC[N+](C)(C)C` [ACETYLCHOLINE] was tested. Which activity at 5000 µM [11] did it give?
Its activity at 5000 µM is 34.2%.

For `CC(=O)OC(C)C[N+](C)(C)C` (centres undefined), which activity at 500 µM [12] is on record?
The activity at 500 µM was 82.5%.

`C=C[C@H]1C[N@@]2CC[C@H]1C[C@@H]2[C@@H](O)c1ccnc2ccc(OC)cc12` [QUINIDINE] was tested. Which activity at 500 µM [13] did it give?
The activity at 500 µM was 6.1%.

`COc1ccc(CN(CCN(C)C)c2ccccn2)cc1` [PYRILAMINE] was tested. Which Activity [2] did it give?
Its Activity is “substrate [+]”.

And the activity at 500 µM [14]?
The activity at 500 µM was 36.3%.

How did the activity at 5000 µM [15] turn out when `NC[C@H](O)c1ccc(O)c(O)c1` [NOREPINEPHRINE] was run?
Its activity at 5000 µM is 70.9%.

For `Nc1ccc(C(=O)NCC(=O)O)cc1` [AMINOHIPPURIC ACID], which Activity [16] is on record?
The Activity was “is not an inhibitor [-]”.

And the Activity [2]?
Its Activity is “is not a substrate [-]”.

How did the Activity [2] turn out when `CC(=O)O[C@H](CC(=O)[O-])C[N+](C)(C)C` [ACETYLCARNITINE] was run?
The Activity was “substrate [+]”.

How did the activity at 5000 µM [17] turn out when `NCCc1c[nH]c2ccc(O)cc12` [SEROTONIN] was run?
The activity at 5000 µM was 51.3%.

Which activity at 500 µM [18] does the source give for `C[N+](C)(C)CCO` [CHOLINE] here?
The activity at 500 µM was 74.6%.

For `CNC(=O)c1cccnc1` [NICOTINYL METHYLAMIDE], which Activity [19] is on record?
Its Activity is “is not an inhibitor [-]”.

For `CC[N+](CC)(CC)CC` [TETRYLAMMONIUM], which activity at 500 µM [20] is on record?
The activity at 500 µM was 15.4%.
